In patent US20220031596A1, “ANTI-AGING AGENT AND ANTI-AGING METHOD” (priority 2018, published 2022):

Tests used:
Assay type in all cases: in vivo, human
[1] = tested on: estradiol concentration in the plasma; assay: Evaluation of estradiol secretion promoting effect (plasma estradiol, 24-week oral ingestion); details: for estradiol concentration in the plasma, 0 weeks (before ingestion) / estradiol concentration in the plasma, 24 weeks (after ingestion) / estradiol concentration in the plasma, Change rate (24 weeks - 0 weeks): Low Dose Group (100 mg/daily, oral), mean±SD; for estradiol concentration in the plasma, 0 weeks (before ingestion): baseline
Protocol: In order to confirm a change in the estradiol quantity before and after ingestion of the nicotinamide mononucleotide, a test was conducted on healthy males and females aged 50 to 70 years.
As a sample of Working Example 7, a capsule formulation containing the nicotinamide mononucleotide and starch (100 mg of the nicotinamide mononucleotide in 4 capsules) (manufactured by SHINKOWA PHARMACEUTICAL Co., Ltd.) was used.
[…] In order to conduct appropriate evaluations, those who had been regularly using medical products for chronic diseases, those who had been consuming healthy foods that may affect clinical research, and those who were currently participating in other clinical researches or clinical trials or had participated in other clinical researches or clinical trials within the last three months were excluded from the subject for the evaluation. The capsule formulations were ingested at 10 am (between meals and fasting state) together with water or lukewarm water (oral administration).
Measurement of the estradiol quantity in the plasma was conducted by requesting the measurement to an external public organization according to a usual method. FIGS. 14a to 14c indicate transitions of the estradiol concentration (pg/ml) in the plasma for 24 weeks. FIG. 14a represents the transitions of the whole subjects; FIG. 14b represents the transitions of the male subjects; FIG. 14c represents the transitions of the female subjects. Further, FIGS. 15a to 15c indicate change rates (%) of the blood estradiol concentration up to 24 weeks when the nicotinamide mononucleotide was orally administered to the subjects for 24 weeks. FIG. 15a represents the change rates of the whole subjects; FIG. 15b represents the change rates of the male subjects; FIG. 15c represents the change rates of the female subjects. Further, Table 7 indicates the numerical values of the estradiol concentration (pg/ml) in the plasma before the ingestion of the nicotinamide mononucleotide (0 weeks) and after the ingestion of the nicotinamide mononucleotide (24 weeks). Note that the numerical values represent mean values±standard deviation.

[2] = tested on: testosterone concentration in the plasma; assay: Evaluation of testosterone secretion promoting effect (plasma testosterone, 24-week oral ingestion); details: for testosterone concentration in the plasma, 0 weeks (before ingestion) / testosterone concentration in the plasma, 24 weeks (after ingestion) / testosterone concentration in the plasma, Change rate (24 weeks - 0 weeks): High Dose Group (200 mg/daily, oral), mean±SD; for testosterone concentration in the plasma, 0 weeks (before ingestion): baseline
Protocol: In order to confirm a change in the testosterone quantity before and after ingestion of the nicotinamide mononucleotide, a test was conducted on healthy males and females aged 50 to 70 years.
As a sample of Working Example 8, a capsule formulation containing the nicotinamide mononucleotide and starch (200 mg of the nicotinamide mononucleotide in 4 capsules) (manufactured by SHINKOWA PHARMACEUTICAL Co., Ltd.) was used.
(§1) Each group consisting of five healthy males and females aged 50 to 70 years in an unbiased age group ingested the above high dose capsule formulation once a day by 4 capsules for 24 weeks (total 10 subjects, 200 mg/daily ingestion). In order to conduct appropriate evaluations, those who had been regularly using medical products for chronic diseases, those who had been consuming healthy foods that may affect clinical research, and those who were currently participating in other clinical researches or clinical trials or had participated in other clinical researches or clinical trials within the last three months were excluded from the subject for the evaluation. The capsule formulations were ingested at 10 am (between meals and fasting state) together with water or lukewarm water (oral administration).
Measurement of the testosterone quantity in the plasma was conducted by requesting the measurement to an external public organization according to a usual method. FIGS. 16a to 16c indicate transitions of the testosterone concentration (ng/ml) in the plasma for 24 weeks. FIG. 16a represents the transitions of the whole subjects; FIG. 16b represents the transitions of the male subjects; FIG. 16c represents the transitions of the female subjects. Further, FIGS. 17a to 17c indicate change rates (%) of the blood testosterone concentration up to 24 weeks when the nicotinamide mononucleotide was orally administered to the subjects for 24 weeks. FIG. 17a represents the change rates of the whole subjects; FIG. 17b represents the change rates of the male subjects; FIG. 17c represents the change rates of the female subjects. Further, Table 8 indicates the numerical values of the testosterone concentration (ng/ml) in the plasma before the ingestion of the nicotinamide mononucleotide (0 weeks) and after the ingestion of the nicotinamide mononucleotide (24 weeks). Note that the numerical values represent mean values±standard deviation.

[3] = tested on: cortisol concentration in the plasma; assay: Evaluation of cortisol secretion promoting effect (plasma cortisol, 24-week oral ingestion); details: for cortisol concentration in the plasma, 0 weeks (before ingestion) / cortisol concentration in the plasma, 24 weeks (after ingestion) / cortisol concentration in the plasma, Change rate (24 weeks - 0 weeks): High Dose Group (200 mg/daily, oral), mean±SD; for cortisol concentration in the plasma, 0 weeks (before ingestion): baseline
Protocol: In order to confirm a change in the cortisol quantity before and after ingestion of the nicotinamide mononucleotide, a test was conducted on healthy males and females aged 50 to 70 years.
As a sample of Working Example 11, a capsule formulation containing the nicotinamide mononucleotide and starch (200 mg of the nicotinamide mononucleotide in 4 capsules) (manufactured by SHINKOWA PHARMACEUTICAL Co., Ltd.) was used.
as §1
Measurement of the cortisol quantity in the plasma was conducted by requesting the measurement to an external public organization according to a usual method. FIGS. 22a to 22c indicate transitions of the cortisol concentration […] in the plasma for 24 weeks. FIG. 22a represents the transitions of the whole subjects; FIG. 22b represents the transitions of the male subjects; FIG. 22c represents the transitions of the female subjects. Further, FIGS. 23a to 23c indicate change rates (%) of the blood cortisol concentration up to 24 weeks when the nicotinamide mononucleotide was orally administered to the subjects for 24 weeks. FIG. 23a represents the change rates of the whole subjects; FIG. 23b represents the change rates of the male subjects; FIG. 23c represents the change rates of the female subjects. Further, Table 10 indicates the numerical values of the cortisol concentration (μg/dl) in the plasma before the ingestion of the nicotinamide mononucleotide (0 weeks) and after the ingestion of the nicotinamide mononucleotide (24 weeks). Note that the numerical values represent mean values±standard deviation.

With NC(=O)c1ccc[n+]([C@@H]2O[C@H](COP(=O)([O-])O)[C@@H](O)[C@H]2O)c1 [nicotinamide mononucleotide] the “estradiol concentration in the plasma, 0 weeks (before ingestion)” value (“estradiol concentration … (before ingestion)” below) ([1]; Female) was 10.0 ± 0.0 pg/mL, the “estradiol concentration in the plasma, 24 weeks (after ingestion)” value (from here on “estradiol concentration … (after ingestion)”) ([1]; Female) was 40.8 ± 70.6 pg/mL and the “estradiol concentration in the plasma, Change rate (24 weeks - 0 weeks)” value ([1]; Female) was 30.8 ± 70.6 pg/mL. For the same compound, the “estradiol concentration … (before ingestion)” value ([1]; Male) was 24.0 ± 9.4 pg/mL, the “estradiol concentration … (after ingestion)” value ([1]; Male) was 24.9 ± 7.7 pg/mL and the “estradiol concentration in the plasma, Change rate (24 weeks - 0 weeks)” value ([1]; Male) was 0.9 ± 5.6 pg/mL. For the same compound, the “estradiol concentration … (before ingestion)” value ([1]; Whole Subjects) was 17.0 ± 9.7 pg/mL, the “estradiol concentration … (after ingestion)” value ([1]; Whole Subjects) was 32.9 ± 48.1 pg/mL and the “estradiol concentration in the plasma, Change rate (24 weeks - 0 weeks)” value ([1]; Whole Subjects) was 15.9 ± 49.8 pg/mL. The “estradiol concentrations in the plasma, effect of ingestion (in words)” value ([1]; oral, 100 mg/daily, 24 weeks, FIGS. 14a-14c, 15a-15c) was “increased”, the “testosterone concentration in the plasma, 0 weeks (before ingestion)” value (“testosterone concentration … (before ingestion)” below) ([2]; Female) was 0.09 ± 0.06 ng/mL and the “testosterone concentration in the plasma, 24 weeks (after ingestion)” value (“testosterone concentration … (after ingestion)” for short) ([2]; Female) was 0.10 ± 0.05 ng/mL. The “testosterone concentration in the plasma, Change rate (24 weeks - 0 weeks)” value ([2]; Female) was 0.00 ± 0.03 ng/mL, the “testosterone concentration … (before ingestion)” value ([2]; Male) was 5.66 ± 1.54 ng/mL and the “testosterone concentration … (after ingestion)” value ([2]; Male) was 5.90 ± 1.59 ng/mL. The “testosterone concentration in the plasma, Change rate (24 weeks - 0 weeks)” value ([2]; Male) was 0.25 ± 0.92 ng/mL, the “testosterone concentration … (before ingestion)” value ([2]; Whole Subjects) was 2.87 ± 3.11 ng/mL and the “testosterone concentration … (after ingestion)” value ([2]; Whole Subjects) was 3.00 ± 3.24 ng/mL. The “testosterone concentration in the plasma, Change rate (24 weeks - 0 weeks)” value ([2]; Whole Subjects) was 0.13 ± 0.63 ng/mL, the “testosterone concentrations in the plasma, effect of ingestion (in words)” value ([2]; oral, 200 mg/daily, 24 weeks, FIGS. 16a-16c, 17a-17c) was “increased” and the “cortisol concentration in the plasma, 0 weeks (before ingestion)” value (shortened to “cortisol concentration … (before ingestion)”) ([3]; Female) was 6.82 ± 1.20 µg/dL. The “cortisol concentration in the plasma, 24 weeks (after ingestion)” value (shortened to “cortisol concentration … (after ingestion)”) ([3]; Female) was 10.56 ± 5.92 µg/dL, the “cortisol concentration in the plasma, Change rate (24 weeks - 0 weeks)” value ([3]; Female) was 3.74 ± 6.16 µg/dL and the “cortisol concentration … (before ingestion)” value ([3]; Male) was 7.97 ± 2.50 µg/dL. The “cortisol concentration … (after ingestion)” value ([3]; Male) was 10.30 ± 4.47 µg/dL, the “cortisol concentration in the plasma, Change rate (24 weeks - 0 weeks)” value ([3]; Male) was 2.33 ± 3.38 µg/dL and the “cortisol concentration … (before ingestion)” value ([3]; Whole Subjects) was 7.40 ± 1.94 µg/dL. The “cortisol concentration … (after ingestion)” value ([3]; Whole Subjects) was 10.43 ± 4.95 µg/dL, the “cortisol concentration in the plasma, Change rate (24 weeks - 0 weeks)” value ([3]; Whole Subjects) was 3.04 ± 4.74 µg/dL and the “cortisol concentrations in the plasma, effect of ingestion (in words)” value ([3]; oral, 200 mg/daily, 24 weeks, FIGS. 22a-22c, 23a-23c) was “increased”.
